From patent US12077607B2, “Functional and therapeutic effects of PAR4 cleavage by cathepsin G” (UNIVERSITY OF UTAH RESEARCH FOUNDATION, priority 2021, dated 2024) come the findings set out here.

One experiment concerns mouse washed platelets. Briefly: Platelet aggregation of mouse washed platelets. In kind it is cell-based. To be noted: 1 U/mL human thrombin, 1 μM human CatG or 1 mM RA-11mer. The source says:
Animal studies. Mouse platelets were isolated as previously described from C57BL/6 mice (Denorme et al., Blood. 2020; 135(6):429-440). Dog platelets were isolated from whole blood drawn into ACD using a similar isolation procedure as for human platelets. All animal studies were approved by the University of Utah Institutional Animal Care and Use Committee (18-10012).
Platelet and neutrophil isolation. Platelets and neutrophils were isolated as previously described (Yost et al., J Clin Invest. 2016; 126(10):3783-3798). Platelet isolation from dogs, rats and mice was approved by the IACUC. Platelet activation and aggregation were performed as previously described (Manne et al., Blood. 2020; 136(11): 1317-1329).
(§1) Platelet isolation, aggregation, and activation. Human washed platelets were prepared and resuspended in Tyrode's Buffer at 2×10^8/mL as described (Edelstein et al., Nat Med. 2013; 19(12):1609-1616). For human and dog platelet comparisons, platelets were prepared using a modified human platelet protocol with final concentrations of […] (Cayman Chemical, Ann Arbor, MI, USA) used during centrifugation steps. Centrifugations after Tyrode's washes was decreased to 1,250×g as described in Cremer et al., PLOS One. 2019; 14(11): e0224891. Platelet aggregation was measured under stirring conditions at 37° C. using a PAP-8E aggregometer after treatment with the following agonists: arachidonic acid (Bio/Data Corporation, Horsham, PA, USA), cathepsin G, elastase, proteinase 3 (Athens Research Group), α-thrombin (Sigma, St. Louis, MO, USA), PAR-1 peptide (SFLLRN) (GL Biochem, China). P-selectin and PAC-1 were measured as previously described (Yee et al., J Thromb Haemost. 2006; 4(9):2043-2050; Tourdot et al., Arterioscler Thromb Vasc Biol. 2014; 34(12):2644-2650).

Another experiment has as its target T1, WT human PAR4 (hPAR4) (Homo sapiens, UniProt Q96RI0).
T1 construct: Flag; expressed in transfected cells; host or cells: HEK293T/17 (ATCC CRL-11268)
T1 sequence (Q96RI0 18-385): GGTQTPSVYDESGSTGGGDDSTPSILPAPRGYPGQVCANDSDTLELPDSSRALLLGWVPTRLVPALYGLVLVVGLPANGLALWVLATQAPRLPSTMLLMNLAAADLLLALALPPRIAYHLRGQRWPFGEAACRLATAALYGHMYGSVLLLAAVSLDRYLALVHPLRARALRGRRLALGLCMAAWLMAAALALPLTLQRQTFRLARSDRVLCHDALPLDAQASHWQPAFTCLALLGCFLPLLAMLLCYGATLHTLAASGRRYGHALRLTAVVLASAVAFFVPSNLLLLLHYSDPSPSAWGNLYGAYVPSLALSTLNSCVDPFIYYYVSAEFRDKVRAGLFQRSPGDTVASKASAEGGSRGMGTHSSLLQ
Briefly: PAR4 calcium flux assay in HEK293T/17 cells expressing WT PAR4. In kind it is cell-based. Conditions: CatG 2.5 μM; 100 nM vorapaxar. On the procedure: PAR4 calcium flux assays. PAR4-dependent calcium flux was measured using Fura2-QBT in platelets and HEK293T/17 cells with wild-type (WT) and mutant PAR4 (Tourdot et al., Arterioscler Thromb Vasc Biol. 2014; 34(12):2644-2650).
PAR4 mutant calcium flux assays. Using Quikchange Lightning Site-Directed mutagenesis (Agilent) per manufacturing instructions, pCMV-Flag-PAR4-S66E, pCMV-Flag-PAR4-S67E, and pCMV-Flag-PAR4-R68E were generated from mutation of pCMV-Flag-PAR4 and confirmed by sequencing (University of Utah DNA Sequencing Core). Prior to transfection, HEK293T/17 cells (ATCC CRL-11268) were seeded at 4.5×10^4/mL. The following day, cells were transfected with the plasmid of interest using Lipofectamine 2000 (Invitrogen, Carlsbad, CA, USA). Twenty-four hours after transfection, media was removed and replaced with Optimem w/Glutamax (Gibco, Carlsbad, CA, USA) containing vorapaxar (100 nM) (Cayman Chemical, Ann Arbor, MI, USA) and Fura2-QBT (Molecular Devices). Following incubation for 1 hour at 37° C., plate was placed in the Flexstation 3 (Molecular Devices) where agonists, Tyrode's Buffer, cathepsin G (2.5 μM), or α-thrombin (1.5 U/mL), were injected onto cells and calcium mobilization was monitored and recorded.

Experiment [1] concerns washed platelets. The experiment in a line: Platelet calcium flux assay. In kind it is cell-based, human. Conditions: CatG 500 nM. Here is the method:
Platelet calcium flux assay. Washed platelets were incubated at 37° C. for 1 hour in Tyrode's buffer (supplemented with pgel and heparin) with Fura-2AM (final concentration 2 μM). Platelets were washed and resuspended to a final concentration of 4×10^8/mL. Platelets were dispensed into a Costar 96-well half area clear bottom plate and placed in the Flexstation 3 (Molecular Devices) where cathepsin G (500 nM), buffer, or peptides (2 mM) were injected onto cells and calcium flux monitored.
(§2) GYPGQV-NH2 (SEQ ID NO: 5), RALLLGWVPTR-NH2 (SEQ ID NO: 1), ALLLGWVPTR-NH2 (SEQ ID NO: 2), RALLLG-NH2 (SEQ ID NO: 4). Peptides were synthesized by BIOMATIK (Wilmington, DE, USA) at similar purities. All peptides were suspended in 50% DMSO and 50% ethanol. To measure platelet activation, washed platelets were stimulated with various concentrations of the peptide in the presence of CD41-APC, P-selectin (PE) and PAC-1 (FITC) for 15 minutes at 37° C. and then fixed with FACS Lysis Buffer. Samples were immediately run on a Cytoflex flow cytometer. In some experiments, platelets were stimulated with peptides and platelet aggregation performed as described above. Platelet calcium flux was induced by RALLLGWVPTR (2 mM; SEQ ID NO: 1), CatG (500 nM), ALLLGWVPTR (2 mM; SEQ ID NO: 2) or tyrodes buffer and monitored as described above.
Background: Calcium flux is commonly read through the fluorescence of an indicator in the cells.

The test system of experiment [2] is washed platelets. Briefly: Platelet activation by flow cytometry (PAC-1 binding, P-selectin). In kind it is cell-based, human. On the procedure: as §1, §2
The mark [3] stands for this setting: CatG stimulation, increasing concentrations.

With thrombin, the “platelet aggregation, species comparison: mice” value in the experiment with mouse washed platelets was “induced platelet aggregation”.
As for “CatG: serine protease cathepsin G released by activated neutrophils”, the “platelet aggregation, species comparison: mice” value with mouse washed platelets is “only induced platelet aggregation in humans and dogs”. Further, the “CatG-induced calcium flux, WT PAR4 compared with mock transfection” value in the experiment with WT human PAR4 (hPAR4) is “increased calcium flux”. For the same substance, the “peak platelet calcium flux, CatG compared with RALLLGWVPTR” value with washed platelets [1] (RA-11mer 2 mM) is “similar”. In the experiment with washed platelets [1] (peptides 2 mM, FURA2-AM loaded washed platelets), the platelet calcium flux result is given as “decreased over time”. In the experiment on washed platelets [2] (setting [3]), the “P-selectin expression, PAR4 Thr120 homozygous platelets compared with Ala120” value was “modest but significantly greater” and the “αIIbβ3 activation, PAR4 Thr120 homozygous platelets compared with Ala120” value is on record as “modest but significantly greater”. Moreover, the “αIIbβ3 activation (PAC-1 binding) induced by neutrophil serine protease” value with washed platelets [2] (washed platelets, varying concentrations) is “only protease to induce”.
